Data from patent US9815787B2, “Sulfonamide derivative or pharmaceutically acceptable acid addition salt thereof” (UNIVERSITY OF TSUKUBA, priority 2013, dated 2017).

Target: T1, OX2R (Homo sapiens, UniProt O43614)
T1 construct: expressed in transfected cells; host or cells: CHO (Chinese hamster ovary) cells constitutively expressing the OX2R gene and NFAT-luciferase (CHOOX2R)
T1 sequence (O43614 1-444): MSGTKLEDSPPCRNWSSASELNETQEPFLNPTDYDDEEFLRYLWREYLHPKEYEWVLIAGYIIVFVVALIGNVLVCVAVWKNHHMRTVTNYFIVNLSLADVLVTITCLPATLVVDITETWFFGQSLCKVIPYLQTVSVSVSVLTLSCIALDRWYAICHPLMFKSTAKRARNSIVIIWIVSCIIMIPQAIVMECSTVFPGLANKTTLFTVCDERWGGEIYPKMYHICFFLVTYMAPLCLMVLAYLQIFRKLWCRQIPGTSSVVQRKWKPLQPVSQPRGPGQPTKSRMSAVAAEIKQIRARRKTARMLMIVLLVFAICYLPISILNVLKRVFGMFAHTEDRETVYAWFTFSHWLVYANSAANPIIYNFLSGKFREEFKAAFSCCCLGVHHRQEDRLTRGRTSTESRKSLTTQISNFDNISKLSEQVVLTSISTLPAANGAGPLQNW
Test: Evaluation of agonist activity against OX2R (CHOOX2R cells, Fura2AM fluorescence, FDSS3000)
Assay type: cell-based
Outline: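 CHO cells stably expressing human OX2R (and NFAT-luciferase), cultured 48 h in 5% FBS DMEM. Agonist response read as change in Fura2AM fluorescence on compound addition in HEPES buffer. Final compound concentrations 0.1, 1.0 or 10 μM; 1% DMSO.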

[1] = test compound 0.1 μM; CHOOX2R cells; relative to orexin-A as full agonist (100%)
[2] = test compound 1.0 μM; CHOOX2R cells; relative to orexin-A as full agonist (100%)
[3] = test compound 10 μM; CHOOX2R cells; relative to orexin-A as full agonist (100%)
[4] = test compound 0.1 μM; relative to orexin-A as full agonist (100%); CHOOX2R cells
[5] = test compound 1.0 μM; relative to orexin-A as full agonist (100%); CHOOX2R cells
[6] = test compound 10 μM; relative to orexin-A as full agonist (100%); CHOOX2R cells
[7] = OX2R agonist activity; CHOOX2R cells
[8] = conversion with orexin-A as full agonist (maximum agonist activity 100%)

SMILES	Response (0.1 μM (%)) [1]	Response (1.0 μM (%)) [2]	Response (10 μM (%)) [3]	Response (0.1 μM (%)) [4]	Response (1.0 μM (%)) [5]	Response (10 μM (%)) [6]	EC50 [7]	Emax [8]
COc1ccc(F)c(-c2ccc(OC)c(S(=O)(=O)Nc3cccc(NCCNC(=O)c4ccccc4OC)c3)c2)c1 [Example 34, N-(2-((3-(2′-fluoro-4,5′-dimethoxy-[1,1′-biphenyl]-3-ylsulfonamide)phenyl)amino)ethyl)-2-methoxybenzamide]	13%	64%	123%					
COc1ccccc1C(=O)NCCNc1cccc(NS(=O)(=O)c2cc(-c3cccc(N)c3)ccc2OC)c1 [Example 37, N-(2-((3-(3′-amino-4-methoxy-[1,1′-biphenyl]-3-ylsulfonamide)phenyl)amino)ethyl)-2-methoxybenzamide]	16%	102%	163%					
COc1ccc(-c2ccccc2F)cc1S(=O)(=O)Nc1cccc(NCCNC(=O)c2ccccn2)c1 [Example 14, N-(2-((3-(2′-fluoro-4-methoxy-[1,1′-biphenyl]-3-ylsulfonamide)phenyl)amino)ethyl)picolinamide]				<5%	<5%	8%		
COc1ccc(-c2cccc(C(=O)N3CCCC3)c2)cc1S(=O)(=O)Nc1cccc(NCCNC(=O)c2sccc2Cl)c1 [Example 89, 3-chloro-N-(2-((3-(4-methoxy-3′-(pyrrolidine-1-carbonyl)-[1,1′-biphenyl]-3-ylsulfonamido)phenyl)amino)ethyl)thiophene-2-carboxamide]	93%	96%	97%					
COc1ccccc1C(=O)NCCNc1cccc(NS(=O)(=O)c2cc(-c3cccc(C(=O)N(C)C)c3)ccc2OC)c1 [Example 40, 4′-methoxy-3′-(N-(3-((2-(2-methoxybenzamido)ethyl)amino)phenyl)sulfamoyl)-N,N-dimethyl-[1,1′-biphenyl]-3-carboxamide]	35%	74%	74%				50 nM	74%
COc1ccc(-c2cccc(C(=O)N3CCC3)c2)cc1S(=O)(=O)Nc1cccc(NCCNC(=O)c2c(OC)cccc2OC)c1 [Example 85, N-(2-((3-(3′-(azetidine-1-carbonyl)-4-methoxy-[1,1′-biphenyl]-3-ylsulfonamido)phenyl)amino)ethyl)-2,6-dimethoxybenzamide]	19%	90%	90%					
COc1ccc(-c2cccc(C(=O)N3CCCCC3)c2)cc1S(=O)(=O)Nc1cccc(NCCNC(=O)c2cccc(F)c2)c1 [Example 92, 3-fluoro-N-(2-((3-(4-methoxy-3′-(piperidine-1-carbonyl)-[1,1′-biphenyl]-3-ylsulfonamido)phenyl)amino)ethyl)benzamide]	27%	92%	94%					
COc1cccc(C(=O)NCCNc2cccc(NS(=O)(=O)c3cc(-c4ccccc4Cl)ccc3OC)c2)c1 [Example 11, N-(2-((3-(2′-chloro-4-methoxy-[1,1′-biphenyl]-3-ylsulfonamide)phenyl)amino)ethyl)-3-methoxybenzamide]				<5%	17%	23%		
COc1ccc(-c2cccc(C(=O)N(C)C)c2)cc1S(=O)(=O)Nc1cccc(NCCNC(=O)c2sccc2C)c1 [Example 60, N-(2-((3-(3′-(dimethylcarbamoyl)-4-methoxy-[1,1′-biphenyl]-3-ylsulfonamido)phenyl)amino)ethyl)-3-methylthiophene-2-carboxamide]	<5%	43%	75%					
COc1ccccc1C(=O)NCCN(C)c1cccc(NS(=O)(=O)c2cc(-c3cccc(C(=O)N(C)C)c3)ccc2OC)c1 [Example 112, 4′-methoxy-3′-(N-(3-((2-(2-methoxybenzamido)ethyl) (methyl)amino)phenyl)sulfamoyl)-N,N-dimethyl-[1,1′-biphenyl]-3-carboxamide]				<5%	131%	139%		
COc1ccc(-c2cccc(C(=O)N(C)C)c2)cc1S(=O)(=O)Nc1cccc(NCCNC(=O)c2ccnn2C)c1 [Example 59, N-(2-((3-(3′-(dimethylcarbamoyl)-4-methoxy-[1,1′-biphenyl]-3-ylsulfonamido)phenyl)amino)ethyl)-1-methyl-1H-pyrazole-5-carboxamide]	<5%	<5%	64%					
CNC(=O)c1cccc(-c2ccc(OC)c(S(=O)(=O)Nc3cccc(NCCNC(=O)c4ccccc4OC)c3)c2)c1 [Example 73, 4′-methoxy-3′-(N-(3-((2-(2-methoxybenzamido)ethyl)amino)phenyl)sulfamoyl)-N-methyl-[1,1′-biphenyl]-3-carboxamide]	45%	90%	98%				182 nM	98%
COc1ccc(-c2ccccc2F)cc1S(=O)(=O)Nc1cccc(NCCNC(=O)c2ccncc2)c1 [Example 16, N-(2-((3-(2′-fluoro-4-methoxy-[1,1′-biphenyl]-3-ylsulfonamide)phenyl)amino)ethyl)isonicotinamide]				<5%	<5%	<5%		
COc1ccc(-c2cccc(C(=O)N(C)C)c2)cc1S(=O)(=O)Nc1cccc(NCCNC(=O)c2ncccc2Cl)c1 [Example 51, 3-chloro-N-(2-((3-(3′-(dimethylcarbamoyl)-4-methoxy-[1,1′-biphenyl]-3-ylsulfonamido)phenyl)amino)ethyl)picolinamide]	<5%	9%	87%				3280 nM	87%
COc1ccccc1C(=O)NCCNc1cccc(NS(=O)(=O)c2cc(-c3cc(F)ccc3F)ccc2OC)c1 [Example 19, N-(2-((3-(2′,5′-difluoro-4-methoxy-[1,1′-biphenyl]-3-ylsulfonamide)phenyl)amino)ethyl)-2-methoxybenzamide]				<5%	8%	143%		
COc1ccc(-c2ccccc2F)cc1S(=O)(=O)Nc1cccc(NCCNC(=O)c2ccccc2O)c1 [Example 6, N-(2-((3-(2′-fluoro-4-methoxy-[1,1′-biphenyl]-3-ylsulfonamide)phenyl)amino)ethyl)-2-hydroxybenzamide]				<5%	<5%	7%		
